Data on six compounds can be found in patent US11203577B2, “Sulfonyl-structure-containing triazinone derivatives, their preparation methods and their uses in insect killing and/or bacterium killing” (Nankai University, priority 2017, dated 2021).

The test system of one series is Sclerotinia rot of colza. Nature of the series: In vitro fungicidal activity, PDA colony diameter. It counts as cell-based. Conditions: 96 h, read-out: Fungicidal activity (%) Sclerotinia rot of colza.
The test system of a further series is Wheat head blight. In words: whole plant or invertebrate. It counts as cell-based. Conditions: Triticum aestivum, read-out: Fungicidal activity (%) Wheat head blight.
The next series concerns Maize borers. Nature of the series: Test of insecticidal activity against maize borers (leaf immersion). Conditions: read-out: Mortalities (%) Maize borers.
In series [1] the test system is Cercospora brown spot of peanut. Nature of the series: In vitro fungicidal activity, PDA colony diameter. It counts as cell-based. Conditions: 96 h, read-out: Fungicidal activity (%) Cercospora brown spot of peanut.
The next series deals with Cotton bollworms. In words: Test of insecticidal activity against cotton bollworms (pesticide mixed into feedstuff). Conditions: read-out: Mortalities (%) Cotton bollworms.
The test system of series [2] is mosquito larvae (Culer pipiens pallens). In words: Test of insecticidal activity against mosquito larvae (checked after 24 h).
For another series, the system named is Potato late blight. Nature of the series: microbe, parasite or virus in culture. It counts as cell-based. Conditions: Phytophthora infestans, 96 h, read-out: Fungicidal activity (%) Potato late blight.
Another series has as its system Cucumber fusarium wilt. Nature of the series: In vitro fungicidal activity, PDA colony diameter. It is filed as cell-based. Conditions: 96 h, read-out: Fungicidal activity (%) Cucumber fusarium wilt.
A further series relates to Tomato early blight. In words: In vitro fungicidal activity, PDA colony diameter. Conditions: read-out: Fungicidal activity (%) Tomato early blight. It counts as cell-based, Alternaria solani.
The test system of a further series is Apple ring rot. Nature of the series: In vitro fungicidal activity, PDA colony diameter. It counts as cell-based. Conditions: inhibition of colony diameter. The essentials:
(§1)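 Mycelial plugs cut from the edge of 7-day PDA colonies placed on PDA containing 50 mg/kg compound or on compound-free PDA, grown 4 days. Colony diameters measured; percent inhibition calculated against untreated control.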

Series [3] concerns Capsicum phytophthora blight. In words: In vitro fungicidal activity, PDA colony diameter. Conditions: 96 h. It is filed as cell-based. The essentials:
as §1

A further series concerns Rice sheath blight. Nature of the series: In vitro fungicidal activity, PDA colony diameter. It is filed as cell-based. Conditions: read-out: Fungicidal activity (%) Rice sheath blight.
The subject of the next series is Armyworms. Nature of the series: Test of insecticidal activity against armyworms (leaf immersion). Conditions: 600 mg/kg, 3-4 days.
In series [4] the test system is Corn southern leaf blight. In words: In vitro fungicidal activity, PDA colony diameter. It is filed as cell-based. Conditions: read-out: Fungicidal activity (%) Corn southern leaf blight.
The test system of another series is Rice bakanae disease. Nature of the series: In vitro fungicidal activity, PDA colony diameter. It is filed as cell-based. Conditions: read-out: Fungicidal activity (%) Rice bakanae disease.
The next series concerns Wheat sheath blight. In words: In vitro fungicidal activity, PDA colony diameter. It counts as cell-based. Conditions: read-out: Fungicidal activity (%) Wheat sheath blight.
Another series relates to Watermelon anthracnose. Nature of the series: In vitro fungicidal activity, PDA colony diameter. It counts as cell-based. Conditions: read-out: Fungicidal activity (%) Watermelon anthracnose.
For series [5], the system named is bean aphides (Aphis laburni Kaltenbach). In words: Test of insecticidal activity against aphides (leaf immersion, checked after 96 h). Conditions: for mortality at 100 mg/kg / mortality at 600 mg/kg / mortality at 10 mg/kg / mortality at 5 mg/kg: Aphis, 96 h, read-out: Mortalities (%) against aphides; for insecticidal activity against aphides compared with pymetrozine: 5 mg/kg.

Setting [6] is: 50 mg/kg, inhibition of colony diameter.
Where [7] appears, read: 24 h, read-out: Mortalities (%) against mosquito larvae.

Like-named read-outs stand apart in the source and are kept apart here.

Method for Cotton bollworms: Method of testing against cotton bollworms: the pesticide is mixed into the feedstuff, i.e., 3 mL prepared solution is added into about 27 g freshly prepared feedstuff; thus, required concentration is obtained by diluting by 10 times.

As to `CC1=NNC(=O)N(NS(=O)(=O)C2CCCCC2)C1` [Ia-6, N-(6-methyl-3-oxo-2,3-dihydro-1,2,4-triazin-4(5H)-yl)-cyclohexylsulfonamide], the inhibition of growth at 50 mg/kg in the series on Sclerotinia rot of colza (setting [6]) was 31.6%; in series [1] (setting [6]), 13%; in the series on Potato late blight, 3.1%; in the series on Cucumber fusarium wilt (setting [6]) it was 20.6%; in series [3], 18.8%. Also, the inhibition at 50 mg/kg in the series with Wheat head blight was 10.9%; in the series on Tomato early blight (setting [6]) it was 12.9%; with Apple ring rot it was 39.2%; in the series with Rice sheath blight (setting [6]) it was 11.6%; in [4] (setting [6]), 7.7%; with Rice bakanae disease (setting [6]), 12.5%. The values for the inhibition at 50 mg/kg with Wheat sheath blight (setting [6]) and in the series with Watermelon anthracnose (setting [6]) were 30.9% and 12.5%, respectively. Also, the figures for the mortality at 600 mg/kg (in the series with Maize borers; in the series on Cotton bollworms; in series [5]) were 40%, 30% and 85%, respectively. The mortality at 10 mg/kg in [2] (setting [7]) was found to be 70%. The “Mortalities (%) Armyworms” value in the series with Armyworms is recorded as 50%. Further, the mortality at 100 mg/kg in series [5] was 45%.

With `CC1=NNC(=O)N(N(S(=O)(=O)c2ccc([N+](=O)[O-])cc2)S(=O)(=O)c2ccc([N+](=O)[O-])cc2)C1` [Ib-7, N-(6-methyl-3-oxo-2,3-dihydro-1,2,4-triazin-4(5H)-yl)-4-nitro-N-(4-nitrobenzenesulfonyl)-benzenesulfonamide], the inhibition of growth at 50 mg/kg in the series on Sclerotinia rot of colza was 30%; in [1], 21.1%; with Potato late blight it was 25.9%; in the series on Cucumber fusarium wilt it was 5%; in [3] it was 36.7%. In addition, the inhibition at 50 mg/kg in the series with Wheat head blight was 23.3%; with Tomato early blight, 23.8%; in the series on Apple ring rot, 0%; with Rice sheath blight it was 27%; in series [4], 12.5%; in the series with Rice bakanae disease, 44.4%. The inhibition at 50 mg/kg in the series with Wheat sheath blight was 59.1%; with Watermelon anthracnose, 20.8%. Besides, the mortality at 600 mg/kg turned out to be 15% in the series on Maize borers, 40% in the series on Cotton bollworms and 100% in series [5]. In addition, the results for the mortality at 10 mg/kg in [2] (setting [7]) and in series [5] were 60% and 25%, respectively. The “Mortalities (%) Armyworms” value in the series with Armyworms is 20%. Further, the mortality at 100 mg/kg in [5] was determined as 85%.

As to `CC1=NNC(=O)N(NS(=O)(=O)c2ccc(OC(F)(F)F)cc2)C1` [Ia-27, N-(6-methyl-3-oxo-2,3-dihydro-1,2,4-triazin-4(5H)-yl)-4-(trifluoromethoxy)-benzenesulfonamide], the inhibition of growth at 50 mg/kg in the series on Sclerotinia rot of colza (setting [6]) worked out at 15.8%; in series [1] (setting [6]), 12%; with Potato late blight, 28.1%; in the series on Cucumber fusarium wilt (setting [6]), 0%; in series [3], 27.8%. Besides, the inhibition at 50 mg/kg stood at 16.2% in the series on Wheat head blight; 16.4% in the series with Tomato early blight (setting [6]); 24.3% with Apple ring rot; 17.4% in the series with Rice sheath blight (setting [6]); 15.6% in series [4] (setting [6]); 17.2% with Rice bakanae disease (setting [6]). In addition, the values for the inhibition at 50 mg/kg with Wheat sheath blight (setting [6]) and with Watermelon anthracnose (setting [6]) were 4.3% and 16.4%, respectively. Moreover, the mortality at 600 mg/kg turned out to be 15% in the series on Maize borers, 25% in the series on Cotton bollworms and 100% in [5]. Further, the mortality at 2 mg/kg in [2] (setting [7]) is 20%. In addition, the mortality at 5 mg/kg in [2] (setting [7]) worked out at 90%; in series [5], 35%. The mortality at 10 mg/kg in [2] (setting [7]) and in series [5] was 100% in each case. Moreover, in the series with Armyworms, the “Mortalities (%) Armyworms” value amounted to 5%. In addition, the “insecticidal activity against aphides compared with pymetrozine” value in series [5] is on record as “equivalent to the insecticidal activity of pymetrozine”. In addition, the mortality at 100 mg/kg in series [5] was found to be 100%.

As for `CC1=NNC(=O)N(NS(=O)(=O)c2ccc3c(c2)CCO3)C1` [Ia-33, N-(6-methyl-3-oxo-2,3-dihydro-1,2,4-triazin-4(5H)-yl)-2,3-dihydrobenzofuran-5-sulfonamide], the inhibition of growth at 50 mg/kg in the series on Sclerotinia rot of colza (setting [6]) came to 12.5%; in [1] (setting [6]), 11.5%; with Potato late blight, 19%; in the series on Cucumber fusarium wilt (setting [6]), 5.1%; in series [3], 19.2%. Further, the inhibition at 50 mg/kg is 33.3% in the series with Wheat head blight; 15% in the series with Tomato early blight (setting [6]); 9.5% in the series with Apple ring rot; 10.7% in the series on Rice sheath blight (setting [6]); 11.1% in [4] (setting [6]); 3.7% with Rice bakanae disease (setting [6]). The results for the inhibition at 50 mg/kg in the series on Wheat sheath blight (setting [6]) and in the series with Watermelon anthracnose (setting [6]) were 9.4% and 0%, respectively. Moreover, the mortality at 600 mg/kg with Maize borers is 0%; in the series with Cotton bollworms it was 0%; in [5], 90%. Besides, the mortality at 10 mg/kg in series [2] (setting [7]) worked out at 85%. For the same compound, the “Mortalities (%) Armyworms” value with Armyworms is 5%. Besides, in series [5], the mortality at 100 mg/kg amounted to 40%.

With `CC1=NNC(=O)N(NS(=O)(=O)c2ccc(F)cc2F)C1` [Ia-19, 2,4-difluoro-N-(6-methyl-3-oxo-2,3-dihydro-1,2,4-triazin-4(5H)-yl)-benzenesulfonamide], the inhibition of growth at 50 mg/kg in the series with Sclerotinia rot of colza (setting [6]) is 15.8%; in series [1] (setting [6]) it was 12%; in the series on Potato late blight it was 25%; in the series on Cucumber fusarium wilt (setting [6]), 11.8%; in [3] it was 5.6%. Also, the inhibition at 50 mg/kg in the series with Wheat head blight amounted to 5.4%; in the series with Tomato early blight (setting [6]), 19.4%; with Apple ring rot, 24.3%; with Rice sheath blight (setting [6]), 11.6%; in [4] (setting [6]) it was 18.7%; in the series with Rice bakanae disease (setting [6]) it was 17.2%. Further, the inhibition at 50 mg/kg came to 0% with Wheat sheath blight (setting [6]) and 16.4% with Watermelon anthracnose (setting [6]). For the same compound, the values for the mortality at 600 mg/kg (in the series with Maize borers; in the series with Cotton bollworms; in [5]) were 20%, 20% and 100%, respectively. In series [2] (setting [7]), the mortality at 1 mg/kg was 60%. In series [2] (setting [7]), the mortality at 2 mg/kg turned out to be 100%. Besides, the mortality at 5 mg/kg in [2] (setting [7]) stood at 100%; in series [5], 25%. In addition, the mortality at 10 mg/kg in series [2] (setting [7]) stood at 100%; in [5], 85%. In series [2] (in vivo), the “insecticidal activity against mosquito larvae” value was “relatively high insecticidal activity”. In the series on Armyworms, the “Mortalities (%) Armyworms” value was determined as 25%. The “insecticidal activity against aphides compared with pymetrozine” value in series [5] is listed as “equivalent to the insecticidal activity of pymetrozine”. For the same compound, the mortality at 100 mg/kg in series [5] is 100%.

With `CC1=NNC(=O)N(NS(=O)(=O)c2cccc3ccccc23)C1` [Ia-8, N-(6-methyl-3-oxo-2,3-dihydro-1,2,4-triazin-4(5H)-yl)-naphthyl-1-sulfonamide], the inhibition of growth at 50 mg/kg in the series with Sclerotinia rot of colza (setting [6]) is 16.7%; in series [1] (setting [6]), 19.2%; in the series on Potato late blight, 28.6%; in the series on Cucumber fusarium wilt (setting [6]), 20.5%; in [3], 26.9%. For the same compound, the inhibition at 50 mg/kg is 33.3% with Wheat head blight; 20% in the series on Tomato early blight (setting [6]); 0% with Apple ring rot; 17.9% with Rice sheath blight (setting [6]); 8.3% in series [4] (setting [6]); 7.4% with Rice bakanae disease (setting [6]). For the same compound, the inhibition at 50 mg/kg came to 30.2% with Wheat sheath blight (setting [6]) and 0% with Watermelon anthracnose (setting [6]). In addition, the mortality at 600 mg/kg turned out to be 0% in the series with Maize borers, 0% in the series on Cotton bollworms and 90% in series [5]. The figures for the mortality at 10 mg/kg in series [2] (setting [7]) and in series [5] were 15% and 25%, respectively. The “Mortalities (%) Armyworms” value with Armyworms is reported as 10%. Further, the mortality at 100 mg/kg in series [5] is 85%.
